Assay: excess molar enthalpy (molar enthalpy of mixing); xn = mol fraction of the nth substance listed
Details: 101 kPa, Liquid, Calvet calorimetry

CCCCCCCC[n+]1ccc2ccccc2c1.N#C[S-] [2-octylisoquinolinium thiocyanate] + O
Details | excess molar enthalpy [kcal/mol]
298.15 K, x1 = 0.3361 | -0.0125
298.15 K, x1 = 0.3603 | -0.0289
298.15 K, x1 = 0.3833 | -0.0433
298.15 K, x1 = 0.4094 | -0.0581
298.15 K, x1 = 0.4329 | -0.0703
298.15 K, x1 = 0.4593 | -0.08198
298.15 K, x1 = 0.4892 | -0.09345
298.15 K, x1 = 0.5141 | -0.1009
298.15 K, x1 = 0.5417 | -0.1071
298.15 K, x1 = 0.5724 | -0.1116
298.15 K, x1 = 0.6068 | -0.1138
298.15 K, x1 = 0.6457 | -0.113
298.15 K, x1 = 0.6742 | -0.1107
298.15 K, x1 = 0.7053 | -0.1052
298.15 K, x1 = 0.7395 | -0.09728
298.15 K, x1 = 0.7771 | -0.08676
298.15 K, x1 = 0.7969 | -0.0805
298.15 K, x1 = 0.8176 | -0.0727
298.15 K, x1 = 0.8395 | -0.0641
298.15 K, x1 = 0.8626 | -0.0543
298.15 K, x1 = 0.887 | -0.0445
298.15 K, x1 = 0.9128 | -0.0332
298.15 K, x1 = 0.9401 | -0.0211
298.15 K, x1 = 0.9691 | -0.00755
303.15 K, x1 = 0.2439 | 0.0421
303.15 K, x1 = 0.2588 | 0.0373
303.15 K, x1 = 0.2756 | 0.0294
303.15 K, x1 = 0.2947 | 0.0165
303.15 K, x1 = 0.3133 | 0.00311
303.15 K, x1 = 0.3344 | -0.0118
303.15 K, x1 = 0.3586 | -0.0282
303.15 K, x1 = 0.3815 | -0.043
303.15 K, x1 = 0.4076 | -0.0583
303.15 K, x1 = 0.4311 | -0.0707
303.15 K, x1 = 0.4575 | -0.0829
303.15 K, x1 = 0.4873 | -0.09441
303.15 K, x1 = 0.5122 | -0.1021
303.15 K, x1 = 0.5398 | -0.1087
303.15 K, x1 = 0.5706 | -0.1138
303.15 K, x1 = 0.605 | -0.1166
303.15 K, x1 = 0.644 | -0.1169
303.15 K, x1 = 0.6725 | -0.1147
303.15 K, x1 = 0.7038 | -0.1107
303.15 K, x1 = 0.7381 | -0.104
303.15 K, x1 = 0.7758 | -0.09393
303.15 K, x1 = 0.7957 | -0.08795
303.15 K, x1 = 0.8165 | -0.081
303.15 K, x1 = 0.8385 | -0.0729
303.15 K, x1 = 0.8617 | -0.0643
303.15 K, x1 = 0.8862 | -0.055
303.15 K, x1 = 0.9122 | -0.0435
303.15 K, x1 = 0.9397 | -0.0304
303.15 K, x1 = 0.9689 | -0.0157
308.15 K, x1 = 0.214 | 0.0641
308.15 K, x1 = 0.2281 | 0.0612
308.15 K, x1 = 0.2422 | 0.0562
308.15 K, x1 = 0.2581 | 0.0454
308.15 K, x1 = 0.2762 | 0.0311
308.15 K, x1 = 0.297 | 0.0144
308.15 K, x1 = 0.3176 | -0.00142
308.15 K, x1 = 0.3411 | -0.0193
308.15 K, x1 = 0.3636 | -0.0349
308.15 K, x1 = 0.3892 | -0.0516
308.15 K, x1 = 0.4124 | -0.065
308.15 K, x1 = 0.4385 | -0.0782
308.15 K, x1 = 0.4682 | -0.0913
308.15 K, x1 = 0.493 | -0.1001
308.15 K, x1 = 0.5207 | -0.1083
308.15 K, x1 = 0.5517 | -0.1147
308.15 K, x1 = 0.5866 | -0.1193
308.15 K, x1 = 0.6262 | -0.1207
308.15 K, x1 = 0.6554 | -0.1195
308.15 K, x1 = 0.6876 | -0.1164
308.15 K, x1 = 0.723 | -0.1104
308.15 K, x1 = 0.7622 | -0.1016
308.15 K, x1 = 0.7829 | -0.09632
308.15 K, x1 = 0.8048 | -0.08987
308.15 K, x1 = 0.8278 | -0.0825
308.15 K, x1 = 0.8523 | -0.0736
308.15 K, x1 = 0.8782 | -0.0631
308.15 K, x1 = 0.9058 | -0.0516
308.15 K, x1 = 0.9352 | -0.039
308.15 K, x1 = 0.9665 | -0.0244

From the NIST ThermoML archive (doi:10.1021/je300853z)
